Species on record: Rattus norvegicus
Assay: DrugMatrix - Regimen: Daily Repeat
Format: toxicity, organism-based, Sprague-Dawley
Parameters: regimen Daily Repeat, gender Male, age 6-8 weeks
Settings: in vivo, sc, route subcutaneous, […]; for ABSOLUTE BASOPHIL / ABSOLUTE EOSINOPHIL / ABSOLUTE LYMPHOCYTE / ABSOLUTE MONOCYTE / ABSOLUTE SEGMENTED NEUTROPHIL / BASOPHIL / EOSINOPHIL / ERYTHROCYTE COUNT / HEMATOCRIT / HEMOGLOBIN / LEUKOCYTE COUNT / LYMPHOCYTE / MEAN CORPUSCULAR HEMOGLOBIN / MEAN CORPUSCULAR HEMOGLOBIN CONCENTRATION / MEAN CORPUSCULAR VOLUME / MONOCYTE / NEUTROPHIL / NUCLEATED RED BLOOD CELLS / PLATELET COUNT: tissue Blood; for ALANINE AMINOTRANSFERASE / ALBUMIN / ALKALINE PHOSPHATASE / ASPARTATE AMINOTRANSFERASE / BLOOD UREA NITROGEN / CARBON DIOXIDE / CHLORIDE / CHOLESTEROL / CREATINE PHOSPHOKINASE / CREATININE / GLUCOSE / LACTATE DEHYDROGENASE / LIPASE / PHOSPHORUS / POTASSIUM / SODIUM / TOTAL BILIRUBIN / TOTAL PROTEIN / URIC ACID: tissue Plasma
[1] = 0 mg/kg, 72 h, dose level Control, time 3 day
[2] = 0 mg/kg, 120 h, dose level Control, time 5 day
[3] = 150 mg/kg, 72 h, dose level High, time 3 day

## CN(Cc1ccc(C(C)(C)C)cc1)Cc1cccc2ccccc12 [BUTENAFINE]
[1]
  ABSOLUTE BASOPHIL: 0 CELLS/uL
  ABSOLUTE EOSINOPHIL: 0 CELLS/uL
  ABSOLUTE LYMPHOCYTE: 10887 CELLS/uL
  ABSOLUTE MONOCYTE: 56 CELLS/uL
  ABSOLUTE SEGMENTED NEUTROPHIL: 1057 CELLS/uL
  BASOPHIL: 0%
  EOSINOPHIL: 0%
  ERYTHROCYTE COUNT: 5.31 x10E6/uL
  HEMATOCRIT: 33.78%
  HEMOGLOBIN: 13.4 G/DL
  LEUKOCYTE COUNT: 12 x10E3/uL
  LYMPHOCYTE: 91.17%
  MEAN CORPUSCULAR HEMOGLOBIN: 25.25 pg
  MEAN CORPUSCULAR HEMOGLOBIN CONCENTRATION: 39.65 G/DL
  MEAN CORPUSCULAR VOLUME: 63.65 fL
  MONOCYTE: 0.5%
  NEUTROPHIL: 8.33%
  NUCLEATED RED BLOOD CELLS: 0 /100WBC
  PLATELET COUNT: 1142 x10E3/uL
  ALANINE AMINOTRANSFERASE: 57.17 u/L
  ALBUMIN: 4.28 G/DL
  ALKALINE PHOSPHATASE: 425.83 u/L
  ASPARTATE AMINOTRANSFERASE: 93.83 u/L
  BLOOD UREA NITROGEN: 14.17 mg/dL
  CARBON DIOXIDE: 33.5 mmol/L
  CHLORIDE: 100 MEQ/L
  CHOLESTEROL: 70.33 mg/dL
  CREATINE PHOSPHOKINASE: 438.67 u/L
  CREATININE: 0.19 mg/dL
  GLUCOSE: 138.5 mg/dL
  LACTATE DEHYDROGENASE: 190.17 u/L
  LIPASE: 9.83 u/L
  PHOSPHORUS: 11.05 mg/dL
  POTASSIUM: 6.59 MEQ/L
  SODIUM: 143.58 MEQ/L
  TOTAL BILIRUBIN: 0.22 mg/dL
  TOTAL PROTEIN: 6.15 G/DL
  URIC ACID: 1.3 mg/dL
[2]
  ABSOLUTE BASOPHIL: 0 CELLS/uL
  ABSOLUTE EOSINOPHIL: 91.17 CELLS/uL
  ABSOLUTE LYMPHOCYTE: 11847.67 CELLS/uL
  ABSOLUTE MONOCYTE: 172.83 CELLS/uL
  ABSOLUTE SEGMENTED NEUTROPHIL: 1105 CELLS/uL
  BASOPHIL: 0%
  EOSINOPHIL: 0.67%
  ERYTHROCYTE COUNT: 5.35 x10E6/uL
  HEMATOCRIT: 33.65%
  HEMOGLOBIN: 13.42 G/DL
  LEUKOCYTE COUNT: 13.22 x10E3/uL
  LYMPHOCYTE: 89.83%
  MEAN CORPUSCULAR HEMOGLOBIN: 25.12 pg
  MEAN CORPUSCULAR HEMOGLOBIN CONCENTRATION: 39.9 G/DL
  MEAN CORPUSCULAR VOLUME: 63 fL
  MONOCYTE: 1.33%
  NEUTROPHIL: 8.17%
  NUCLEATED RED BLOOD CELLS: 0 /100WBC
  PLATELET COUNT: 1347.83 x10E3/uL
  ALANINE AMINOTRANSFERASE: 50 u/L
  ALBUMIN: 4.1 G/DL
  ALKALINE PHOSPHATASE: 329.17 u/L
  ASPARTATE AMINOTRANSFERASE: 77.17 u/L
  BLOOD UREA NITROGEN: 16.83 mg/dL
  CARBON DIOXIDE: 34.83 mmol/L
  CHLORIDE: 99.83 MEQ/L
  CHOLESTEROL: 75.67 mg/dL
  CREATINE PHOSPHOKINASE: 295.83 u/L
  CREATININE: 0.18 mg/dL
  GLUCOSE: 156.33 mg/dL
  LACTATE DEHYDROGENASE: 166.83 u/L
  LIPASE: 9.83 u/L
  PHOSPHORUS: 12.18 mg/dL
  POTASSIUM: 6.69 MEQ/L
  SODIUM: 143.97 MEQ/L
  TOTAL BILIRUBIN: 0.22 mg/dL
  TOTAL PROTEIN: 6.05 G/DL
  URIC ACID: 1.6 mg/dL
[3]
  ABSOLUTE BASOPHIL: 0 CELLS/uL
  ABSOLUTE EOSINOPHIL: 0 CELLS/uL
  ABSOLUTE LYMPHOCYTE: 11405 CELLS/uL
  ABSOLUTE MONOCYTE: 88.33 CELLS/uL
  ABSOLUTE SEGMENTED NEUTROPHIL: 1473.33 CELLS/uL
  BASOPHIL: 0%
  EOSINOPHIL: 0%
  ERYTHROCYTE COUNT: 5.31 x10E6/uL
  HEMATOCRIT: 33.8%
  HEMOGLOBIN: 13.6 G/DL
  LEUKOCYTE COUNT: 12.97 x10E3/uL
  LYMPHOCYTE: 88%
  MEAN CORPUSCULAR HEMOGLOBIN: 25.63 pg
  MEAN CORPUSCULAR HEMOGLOBIN CONCENTRATION: 40.27 G/DL
  MEAN CORPUSCULAR VOLUME: 63.67 fL
  MONOCYTE: 0.67%
  NEUTROPHIL: 11.33%
  NUCLEATED RED BLOOD CELLS: 0 /100WBC
  PLATELET COUNT: 1396 x10E3/uL
  ALANINE AMINOTRANSFERASE: 55 u/L
  ALBUMIN: 3.97 G/DL
  ALKALINE PHOSPHATASE: 429.67 u/L
  ASPARTATE AMINOTRANSFERASE: 77.33 u/L
  BLOOD UREA NITROGEN: 15.67 mg/dL
  CARBON DIOXIDE: 31.67 mmol/L
  CHLORIDE: 101.67 MEQ/L
  CHOLESTEROL: 73 mg/dL
  CREATINE PHOSPHOKINASE: 247 u/L
  CREATININE: 0.17 mg/dL
  GLUCOSE: 147.33 mg/dL
  LACTATE DEHYDROGENASE: 229.67 u/L
  LIPASE: 9 u/L
  PHOSPHORUS: 13.73 mg/dL
  POTASSIUM: 6.88 MEQ/L
  SODIUM: 145.7 MEQ/L
  TOTAL BILIRUBIN: 0.2 mg/dL
  TOTAL PROTEIN: 5.73 G/DL
  URIC ACID: 1.4 mg/dL

From ChEMBL document CHEMBL3885881, “DrugMatrix”
